Data on three compounds can be found in US10863742B2, “Herbicide combinations” (Bayer CropScience Aktiengesellschaft, priority 2016, dated 2020).

Assay in all cases: Greenhouse early post-emergence weed control trial
Common to all, as to type: in vivo

Experiment [1] relates to Lamium purpureum (LAMPU). The conditions noted are these: 480 h, visual weed control 20 DAA, scale 0-100, early post-emergence BBCH 10-11, g ai/ha: diflufenican 50, pyroxasulfone 25, metribuzin 50, combination 50 + 25 + 50, read-out: % Efficacy against various weeds, LAMPU. How it is done: (§1) The following data are the results of a greenhouse investigation in which the herbicide combination according to the present invention was tested against various monocotyledonous and dicotyledonous weeds after an early-post emergence application (BBCH 10-11).
(§2) For this early post-emergent trial seeds of the above mentioned species were sown in 7 cm jiffy pots containing standard soil (14.7% sand, 19.9% clay, 65.4% silt and 1.8% organic matter) covered with 0,5 cm depth of sandy soil and lightly irrigated from above. The pots were placed in a glasshouse (with conditions of 16 hour day and 8 hour night, 21° C. day and 12° C. night and 60% relative humidity) and irrigated from above to allow the seeds to germinate and grow. Once they had reached the required growth stage BBCH 10-11 the propagated plants were treated with the herbicides. The herbicides were applied in a spray volume of 300 l water/ha using a flat fan nozzle XR 8001 at a pressure of 1.8 bar. After the application and air drying the pots were placed back into the glasshouse and allowed to grow on. The pots were irrigated via flood irrigation as required for good plant growth.
(§3) Visual percent of weed control (4 replicates) was rated 20 days after herbicide applications (DAA) on a scale of 0-100. A rating of 0 is defined as no control and 100 as complete control.
(§4) According to Colby synergistic effects of herbicidal active ingredients are indicated if the measured efficacy is higher than the expected one calculated according to his formula for 3-way mixtures: E=(A+B+C)−(A×B+A×C+B×C)/100+(A×B×C)/10000

Experiment [2] concerns Lolium rigidum (LOLRI). The conditions noted are these: 480 h, visual weed control 20 DAA, scale 0-100, early post-emergence BBCH 10-11, g ai/ha: diflufenican 50, pyroxasulfone 25, metribuzin 50, combination 50 + 25 + 50, read-out: % Efficacy against various weeds, LOLRI. How it is done:
as §1, §2, §3, §4

For experiment [3], the system named is Matricaria inodora (MATIN). The settings on record: Tripleurospermum inodorum, 480 h; visual weed control 20 DAA, scale 0-100, early post-emergence BBCH 10-11; g ai/ha: diflufenican 50, pyroxasulfone 25, metribuzin 50, combination 50 + 25 + 50; read-out: % Efficacy against various weeds, MATIN. The protocol:
as §1, §2, §3, §4

For experiment [4], the system named is Pharbitis purpurea (PHBPU). The conditions noted are these: Ipomoea purpurea, 480 h; visual weed control 20 DAA, scale 0-100, early post-emergence BBCH 10-11; g ai/ha: diflufenican 50, pyroxasulfone 25, metribuzin 50, combination 50 + 25 + 50; read-out: % Efficacy against various weeds, PHBPU. The protocol:
as §1, §2, §3, §4

The subject of experiment [5] is Polygonum convolvulus (POLCO). The conditions noted are these: Fallopia convolvulus, 480 h; visual weed control 20 DAA, scale 0-100, early post-emergence BBCH 10-11; g ai/ha: diflufenican 50, pyroxasulfone 25, metribuzin 50, combination 50 + 25 + 50; read-out: % Efficacy against various weeds, POLCO. How it is done:
as §1, §2, §3, §4

The test system of experiment [6] is Veronica persica (VERPE). The settings on record: 480 h, visual weed control 20 DAA, scale 0-100, early post-emergence BBCH 10-11, g ai/ha: diflufenican 50, pyroxasulfone 25, metribuzin 50, combination 50 + 25 + 50, read-out: % Efficacy against various weeds, VERPE. How it is done:
as §1, §2, §3, §4

For `O=C(Nc1ccc(F)cc1F)c1cccnc1Oc1cccc(C(F)(F)F)c1` [Diflufenican, diflufenican], the Emax was 10% in experiment [1]; 2% in experiment [2]; 1% in experiment [3]; 18% in experiment [4]; 13% in experiment [5]; 18% in experiment [6].
In the case of `CSc1nnc(C(C)(C)C)c(=O)n1N` [Metribuzin, metribuzin], the Emax came to 95% in experiment [1]; 6% in experiment [2]; 59% in experiment [3]; 5% in experiment [4]; 1% in experiment [5]; 70% in experiment [6].
As to `Cn1nc(C(F)(F)F)c(CS(=O)(=O)C2=NOC(C)(C)C2)c1OC(F)F` [Pyroxasulfon, pyroxasulfone], the Emax amounted to 5% in experiment [1]; 29% in experiment [2]; 5% in experiment [3]; 10% in experiment [4]; 0% in experiment [5]; 5% in experiment [6].
